Laboratory results from PubChem BioAssay (NCI).
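Cells were grown in 96-well plates and exposed to each compound for 48 hours at five concentrations; endpoints were interpolated linearly between bracketing concentrations, or set to the highest concentration if not reached. GI50: concentration for 50% inhibition of growth. TGI is the concentration that stops growth completely.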

Key:
Experiment in all cases: NCI-60 cell line screen, 48 h
786-0 renal = test system: 786-0 renal
A498 renal = test system: A498 renal
A549 NSCLC = test system: A549 NSCLC
ACHN renal = test system: ACHN renal
BT-549 breast = test system: BT-549 breast
CAKI-1 renal = test system: CAKI-1 renal
CCRF-CEM leukemia = test system: CCRF-CEM leukemia
COLO 205 colon = test system: COLO 205 colon
DU-145 prostate = test system: DU-145 prostate
HCC-2998 colon = test system: HCC-2998 colon
HCT-116 colon = test system: HCT-116 colon
HCT-15 colon = test system: HCT-15 colon
HL-60(TB) leukemia = test system: HL-60(TB) leukemia
HOP-62 NSCLC = test system: HOP-62 NSCLC
HOP-92 NSCLC = test system: HOP-92 NSCLC
HS 578T breast = test system: HS 578T breast
HT29 colon = test system: HT29 colon
IGROV1 ovarian = test system: IGROV1 ovarian
K-562 leukemia = test system: K-562 leukemia
KM12 colon = test system: KM12 colon
LOX IMVI melanoma = test system: LOX IMVI melanoma
M14 melanoma = test system: M14 melanoma
MALME-3M melanoma = test system: MALME-3M melanoma
MCF7 breast = test system: MCF7 breast
MDA-MB-231 breast = test system: MDA-MB-231 breast
MDA-MB-435 = test system: MDA-MB-435
MOLT-4 leukemia = test system: MOLT-4 leukemia
NCI-H226 lung = test system: NCI-H226 lung
NCI-H23 lung = test system: NCI-H23 lung
NCI-H460 lung = test system: NCI-H460 lung
NCI-H522 lung = test system: NCI-H522 lung
NCI/ADR-RES ovarian = test system: NCI/ADR-RES ovarian
OVCAR-3 ovarian = test system: OVCAR-3 ovarian
OVCAR-4 ovarian = test system: OVCAR-4 ovarian
OVCAR-5 ovarian = test system: OVCAR-5 ovarian
OVCAR-8 ovarian = test system: OVCAR-8 ovarian
PC-3 prostate = test system: PC-3 prostate
RPMI-8226 leukemia = test system: RPMI-8226 leukemia
RXF 393 renal = test system: RXF 393 renal
SF-268 CNS = test system: SF-268 CNS
SF-295 CNS = test system: SF-295 CNS
SF-539 CNS = test system: SF-539 CNS
SK-MEL-2 melanoma = test system: SK-MEL-2 melanoma
SK-MEL-28 melanoma = test system: SK-MEL-28 melanoma
SK-MEL-5 melanoma = test system: SK-MEL-5 melanoma
SK-OV-3 ovarian = test system: SK-OV-3 ovarian
SN12C renal = test system: SN12C renal
SNB-19 CNS = test system: SNB-19 CNS
SNB-75 CNS = test system: SNB-75 CNS
SR leukemia = test system: SR leukemia
SW-620 colon = test system: SW-620 colon
T-47D breast = test system: T-47D breast
TK-10 renal = test system: TK-10 renal
U251 CNS = test system: U251 CNS
UACC-257 melanoma = test system: UACC-257 melanoma
UACC-62 melanoma = test system: UACC-62 melanoma
UO-31 renal = test system: UO-31 renal

Cc1ccc(S(=O)(=O)N2C/C(=C\c3cc(F)cc(F)c3)C(=O)/C(=C/c3cc(F)cc(F)c3)C2)cc1
GI50 (786-0 renal): 492 nM
TGI (786-0 renal): 1660 nM
GI50 (A498 renal): 1570 nM
TGI (A498 renal): 3410 nM
GI50 (A549 NSCLC): 2420 nM
TGI (A549 NSCLC): 10100 nM
GI50 (ACHN renal): 232 nM
TGI (ACHN renal): 573 nM
GI50 (BT-549 breast): 286 nM
TGI (BT-549 breast): 709 nM
GI50 (CAKI-1 renal): 367 nM
TGI (CAKI-1 renal): 2400 nM
GI50 (CCRF-CEM leukemia): 74.8 nM
TGI (CCRF-CEM leukemia): 951 nM
GI50 (COLO 205 colon): 653 nM
TGI (COLO 205 colon): 2330 nM
GI50 (DU-145 prostate): 787 nM
TGI (DU-145 prostate): 2390 nM
GI50 (HCC-2998 colon): 632 nM
TGI (HCC-2998 colon): 1970 nM
GI50 (HCT-116 colon): 162 nM
TGI (HCT-116 colon): 513 nM
GI50 (HCT-15 colon): 220 nM
TGI (HCT-15 colon): 966 nM
GI50 (HL-60(TB) leukemia): 243 nM
TGI (HL-60(TB) leukemia): 1050 nM
GI50 (HOP-62 NSCLC): 1500 nM
TGI (HOP-62 NSCLC): 4660 nM
GI50 (HOP-92 NSCLC): 1100 nM
TGI (HOP-92 NSCLC): 3170 nM
GI50 (HS 578T breast): 513 nM
TGI (HS 578T breast): > 43100 nM
GI50 (HT29 colon): 215 nM
TGI (HT29 colon): 544 nM
GI50 (IGROV1 ovarian): 371 nM
TGI (IGROV1 ovarian): 1400 nM
GI50 (K-562 leukemia): 60.5 nM
TGI (K-562 leukemia): 1240 nM
GI50 (KM12 colon): 268 nM
TGI (KM12 colon): 704 nM
GI50 (LOX IMVI melanoma): 175 nM
TGI (LOX IMVI melanoma): 339 nM
GI50 (M14 melanoma): 429 nM
TGI (M14 melanoma): 1720 nM
GI50 (MALME-3M melanoma): 256 nM
TGI (MALME-3M melanoma): 647 nM
GI50 (MCF7 breast): 177 nM
TGI (MCF7 breast): 1380 nM
GI50 (MDA-MB-231 breast): 285 nM
TGI (MDA-MB-231 breast): 867 nM
GI50 (MDA-MB-435): 236 nM
TGI (MDA-MB-435): 653 nM
GI50 (MOLT-4 leukemia): 299 nM
TGI (MOLT-4 leukemia): 2110 nM
GI50 (NCI-H226 lung): 2420 nM
GI50 (NCI-H23 lung): 1140 nM
TGI (NCI-H23 lung): 4140 nM
GI50 (NCI-H460 lung): 742 nM
TGI (NCI-H460 lung): 2910 nM
GI50 (NCI-H522 lung): 260 nM
TGI (NCI-H522 lung): 721 nM
GI50 (NCI/ADR-RES ovarian): 447 nM
TGI (NCI/ADR-RES ovarian): 12700 nM
GI50 (OVCAR-3 ovarian): 408 nM
TGI (OVCAR-3 ovarian): 1270 nM
GI50 (OVCAR-4 ovarian): 367 nM
TGI (OVCAR-4 ovarian): 3570 nM
GI50 (OVCAR-5 ovarian): 713 nM
TGI (OVCAR-5 ovarian): 2280 nM
GI50 (OVCAR-8 ovarian): 301 nM
TGI (OVCAR-8 ovarian): 1770 nM
GI50 (PC-3 prostate): 220 nM
TGI (PC-3 prostate): 612 nM
GI50 (RPMI-8226 leukemia): 36.2 nM
TGI (RPMI-8226 leukemia): 254 nM
GI50 (RXF 393 renal): 535 nM
TGI (RXF 393 renal): 1820 nM
GI50 (SF-268 CNS): 347 nM
TGI (SF-268 CNS): 1310 nM
GI50 (SF-295 CNS): 291 nM
TGI (SF-295 CNS): 1060 nM
GI50 (SF-539 CNS): 710 nM
TGI (SF-539 CNS): 2160 nM
GI50 (SK-MEL-2 melanoma): 972 nM
TGI (SK-MEL-2 melanoma): 2840 nM
GI50 (SK-MEL-28 melanoma): 388 nM
TGI (SK-MEL-28 melanoma): 1320 nM
GI50 (SK-MEL-5 melanoma): 272 nM
TGI (SK-MEL-5 melanoma): 908 nM
GI50 (SK-OV-3 ovarian): 2300 nM
TGI (SK-OV-3 ovarian): 7530 nM
GI50 (SN12C renal): 272 nM
TGI (SN12C renal): 861 nM
GI50 (SNB-19 CNS): 290 nM
TGI (SNB-19 CNS): 1100 nM
GI50 (SNB-75 CNS): 1910 nM
TGI (SNB-75 CNS): 5990 nM
GI50 (SR leukemia): 36.4 nM
TGI (SR leukemia): 296 nM
GI50 (SW-620 colon): 58.2 nM
TGI (SW-620 colon): 283 nM
GI50 (T-47D breast): 1770 nM
TGI (T-47D breast): 6590 nM
GI50 (TK-10 renal): 994 nM
TGI (TK-10 renal): 2990 nM
GI50 (U251 CNS): 178 nM
TGI (U251 CNS): 452 nM
GI50 (UACC-257 melanoma): 583 nM
TGI (UACC-257 melanoma): 2330 nM
GI50 (UACC-62 melanoma): 231 nM
TGI (UACC-62 melanoma): 605 nM
GI50 (UO-31 renal): 481 nM
TGI (UO-31 renal): 1080 nM
